From PMC6863074 (Journal of medicinal chemistry, 2015)
Values after ≈ are worked out from the molar mass of the structure shown. Values belong to the compound of their own block, whether it stands above or below them.

What was measured:
S. epidermis ATCC 35547 = test: MIC determination, S. epidermis ATCC 35547; format: cell-based
S. aureus ATCC 29213 [1] = test: MIC determination, S. aureus ATCC 29213; details: S. aureus ATCC 29213 MIC screening; active = MIC ≤ 8 μg/mL
HepG2 cells = test: XTT cytotoxicity assay with HepG2 cells
Full PK study in mice = details: mouse
S. aureus ATCC 29213 [2] = test: Minimal-bactericidal concentration; details: S. aureus ATCC 29213 (MSSA); MBC = >1000-fold reduction in colonies
S. aureus ATCC 29213 [3] = details: S. aureus ATCC 29213, MSSA quality-control strain; cited from earlier work

Structure (SMILES): CC(C)Nc1c[nH]nc1-c1nc(-c2ccc(Oc3ccc(C(F)(F)F)cc3)cc2)no1 [65b, N-Isopropyl-3-(3-(4-(4-(trifluoromethyl)phenoxy)phenyl)-1,2,4-oxadiazol-5-yl)-1H-pyrazol-4-amine]
MIC (S. epidermis ATCC 35547): > 128 µg/mL
antibacterial activity (in words) (S. aureus ATCC 29213 [1]): active
IC50 (HepG2 cells; Homo sapiens, HepG2, read-out: XTT HepG2 IC50): 3.9 ± 0.8 µg/mL (≈ 9.08 µM)

clearance as % of hepatic blood flow (Full PK study in mice; 20 mg/kg iv): less than 10%
t1/2α (Full PK study in mice; 20 mg/kg iv): t1/2α = 0.54 min
t1/2dist (Full PK study in mice; 20 mg/kg po): t1/2dist = 15.9 h
fold higher volume of distribution than 1 (Full PK study in mice; versus compound 1): 13 fold
fold lower clearance than 1 (Full PK study in mice; versus compound 1): 3 fold
Structure (SMILES): FC(F)(F)c1ccc(Oc2ccc(-c3noc(-c4ccc5[nH]ccc5c4)n3)cc2)cc1 [75b, 5-(1H-Indol-5-yl)-3-(4-(4-(trifluoromethyl)phenoxy)phenyl)-1,2,4-oxadiazole]
fold less toxic compared to the lead 1 (XTT HepG2) (HepG2 cells; HepG2 cells, versus compound 1): 5 fold
MBC relative to MIC (S. aureus ATCC 29213 [2]): the same as the MIC value

Structure (SMILES): CC(=O)NC[C@H]1CN(c2ccc(N3CCOCC3)c(F)c2)C(=O)O1 [linezolid]
MIC (S. aureus ATCC 29213 [3]): 4 µg/mL (≈ 11.9 µM)
